Like-named read-outs stand apart in the source and are kept apart here.
Experiments:
[1] = test system: HCC cell lines, Mahlavu, PLC5, HepG2, and Huh7; assay: MTT cell viability test in HCC cell lines
Procedure: (§1) The HCC cell lines, Mahlavu, PLC5, HepG2, and Huh7, were cultured in Dulbecco's Modified Eagle Medium (DMEM; Seromed, Berlin, Germany) supplemented with 10% heat-inactivated fetal bovine serum, 100 μg/ml streptomycin, 100 μg/ml penicillin, and 2 mM L-glutamine in a humidified atmosphere containing 5% CO2 at 37° C. […] The cells were exposed to different concentrations of the small molecules for 72 hours. Control cells were incubated in the absence of small molecules. Afterwards, the cells were incubated with medium containing MTT for 2 hours. […] For the clonogenic assay, Huh7 cells were seeded out in appropriate dilutions in a 6-well plate and treated with selected small molecules at various concentrations for 15 days. Colonies were fixed with glutaraldehyde (6.0% v/v), stained with crystal violet (0.5% w/v), and counted.

[2] = test system: Huh7 cells; assay: Clonogenic assay; format: cell-based; conditions: for Clonogenic assay / inhibition at 10 µM: colony number at 10 μM; for inhibition at 10 µM: Homo sapiens, Huh-7, 360 h
Procedure: The HCC cell lines, Mahlavu, PLC5, HepG2, and Huh7, were cultured in Dulbecco's Modified Eagle Medium (DMEM; Seromed, Berlin, Germany) supplemented with 10% heat-inactivated fetal bovine serum, 100 μg/ml streptomycin, 100 μg/ml penicillin, and 2 mM L-glutamine in a humidified atmosphere containing 5% CO2 at 37° C. The viability of the exposed cells was determined using the MTT cell viability assay kit (Sigma-Aldrich, St. Louis, USA), according to the manufacturer's instructions. […] The cells were exposed to different concentrations of the small molecules for 72 hours. Control cells were incubated in the absence of small molecules. Afterwards, the cells were incubated with medium containing MTT for 2 hours. The optical density at 450 nm was measured using a microplate reader (Spectral Max250). For the clonogenic assay, Huh7 cells were seeded out in appropriate dilutions in a 6-well plate and treated with selected small molecules at various concentrations for 15 days. Colonies were fixed with glutaraldehyde (6.0% v/v), stained with crystal violet (0.5% w/v), and counted.

[3] = test system: HCC cell lines; assay: Drug efficacy label of top 10 CMap drugs (MTT or clonogenic); format: cell-based; conditions: Table 2-3; labels (1) and (4); gene set in which the drug ranked top 10;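 further: label 1 means effective by MTT or clonogenic assay and 4 means ineffective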
Procedure: as §1

[4] = Table 3-1, HCC cell lines, 72 hours, MTT
[5] = 72 h, Table 2-2, HCC cell lines, MTT
[6] = 72 h, Table 3-1, HCC cell lines, MTT

O=C(O)CNC(=O)C(CS)Cc1ccccc1 (racemic) [DL-thiorphan]
IC50 [1, 4]: > 10 µM | Clonogenic assay ([2]; Table 3-1, 15 days): Ineffective

Nc1nc2nn[nH]c2c(=O)[nH]1 [8-azaguanine]
IC50 [1, 5]: > 10 µM | IC50 [1, 6]: > 10 µM | Clonogenic assay ([2]; Table 2-2, 15 days): Ineffective | Clonogenic assay ([2]; Table 3-1, 15 days): Ineffective | drug efficacy label [3]: 8-azaguanine (4)

C[C@]12CC[C@@H]3c4ccc(O)cc4CC[C@H]3[C@@H]1CC[C@H]2O [Alpha-estradiol]
IC50 [1, 5]: > 10 µM | Clonogenic assay ([2]; Table 2-2, 15 days): Ineffective | drug efficacy label [3]: Alpha-estradiol (4)

COc1ccccc1N1CCN(CCCCNC(=O)c2ccc3ccccc3c2)CC1.Cl.Cl [DO 897/99]
IC50 [1, 4]: > 10 µM | Clonogenic assay ([2]; Table 3-1, 15 days): Effective (Effectiveness in clonogenic assay is defined as reducing more than 50% colony number at 10 μM)

O=C1Nc2ccc3ncsc3c2/C1=C/Nc1ccc(S(=O)(=O)Nc2ccccn2)cc1 [GW-8510]
IC50 [1, 4]: 5 to 10 µM

CC(=O)[C@H]1CC[C@H]2[C@@H]3C[C@H](C)C4=CC(=O)CC[C@]4(C)[C@H]3[C@@H](O)C[C@]12C [Medrysone]
IC50 [1, 5]: > 10 µM | Clonogenic assay ([2]; Table 2-2, 15 days): Ineffective | drug efficacy label [3]: medrysone (4)

CCOc1cc(CC(=O)N[C@@H](CC(C)C)c2ccccc2N2CCCCC2)ccc1C(=O)O [Repaglinide]
IC50 [1, 5]: > 10 µM | Clonogenic assay ([2]; Table 2-2, 15 days): Ineffective | drug efficacy label [3]: repaglinide (4)

CCCCC(CC)CNC(=N)NC(=N)NCCCCCCNC(=N)NC(=N)NCC(CC)CCCC (centres unmarked) [alexidine]
IC50 [1, 6]: 0.1 to 1 µM

O=c1cc(-c2ccc(O)cc2)oc2cc(O)cc(O)c12 [apigenin]
IC50 [1, 5]: > 10 µM | IC50 [1, 6]: > 10 µM | growth / survival of Huh7 cells [2]: inhibited the growth of Huh7 cells | inhibition at 10 µM ([2]; Table 3-1, 15 days): > 50% | Clonogenic assay ([2]; Table 2-2, 15 days): Effective (Effectiveness in clonogenic assay is defined as reducing more than 50% colony number at 10 μM) | drug efficacy label [3]: apigenin (1)

Nc1ncn([C@@H]2O[C@H](CO)[C@@H](O)[C@H]2O)c(=O)n1 [azacitidine]
IC50 [1, 6]: > 10 µM | inhibition at 10 µM ([2]; Table 3-1, 15 days): > 50%

CC(C)COCC(CN(Cc1ccccc1)c1ccccc1)N1CCCC1 (centres unmarked) [bepridil]
IC50 [1, 6]: 5 to 10 µM

CC[C@@]1(O)C(=O)OCc2c1cc1n(c2=O)Cc2cc3ccccc3nc2-1 [camptothecin]
IC50 [1, 6]: 0.1 to 1 µM

CN(C)CCCN1c2ccccc2Sc2ccc(Cl)cc21 [chlorpromazine]
IC50 [1, 5]: > 10 µM | IC50 [1, 6]: 5 to 10 µM | inhibition at 10 µM ([2]; Table 3-1, 15 days): > 50% | Clonogenic assay ([2]; Table 2-2, 15 days): Effective (Effectiveness in clonogenic assay is defined as reducing more than 50% colony number at 10 μM) | drug efficacy label [3]: chlorpromazine (1)

O=c1cc(-c2ccccc2)oc2cc(O)cc(O)c12 [chrysin]
IC50 [1, 6]: > 10 µM

Cc1cc(C2CCCCC2)n(O)c(=O)c1 [ciclopirox]
IC50 [1, 6]: 5 to 10 µM

Oc1c(I)cc(Cl)c2cccnc12 [clioquinol]
IC50 [1, 6]: 5 to 10 µM

Clc1ccc(C(OCCN2CCCCC2)c2ccccc2)cc1 (centres unmarked) [cloperastine]
IC50 [1, 6]: > 10 µM | inhibition at 10 µM ([2]; Table 3-1, 15 days): > 50% | drug efficacy label [3]: cloperastine (4)

N[C@@H]1CON=C1O [cycloserine]
IC50 [1, 6]: > 10 µM | Clonogenic assay ([2]; Table 3-1, 15 days): Ineffective

COc1ccc([C@@H]2Sc3ccccc3N(CCN(C)C)C(=O)[C@@H]2OC(C)=O)cc1 [diltiazem]
IC50 [1, 6]: > 10 µM

OCCN(CCO)c1nc(N2CCCCC2)c2nc(N(CCO)CCO)nc(N3CCCCC3)c2n1 [dipyridamole]
IC50 [1, 5]: > 10 µM | IC50 [1, 6]: > 10 µM | inhibition at 10 µM ([2]; Table 3-1, 15 days): > 50% | Clonogenic assay ([2]; Table 2-2, 15 days): Effective (Effectiveness in clonogenic assay is defined as reducing more than 50% colony number at 10 μM)

Cc1c2ccncc2c(C)c2c1[nH]c1ccccc12 [ellipticine]
IC50 [1, 6]: 0.1 to 1 µM

CC[C@H]1CN2CCc3cc(OC)c(OC)cc3[C@@H]2C[C@@H]1C[C@H]1NCCc2cc(OC)c(OC)cc21 [emetine]
IC50 [1, 6]: 0.1 to 1 µM

C[C@]12CC[C@@H]3c4ccc(O)cc4CC[C@H]3[C@@H]1C[C@@H](O)[C@@H]2O [estriol]
IC50 [1, 6]: > 10 µM

CC1CC(OC(=O)C(O)c2ccccc2)CC(C)(C)N1C (centres unmarked) [eucatropine]
IC50 [1, 6]: > 10 µM

COc1c2ccoc2nc2c(OC)c(OCC(O)C(C)(C)O)ccc12 (centres unmarked) [evoxine]
IC50 [1, 6]: > 10 µM | Clonogenic assay ([2]; Table 3-1, 15 days): Ineffective

CC(C(=O)O)c1cccc(Oc2ccccc2)c1 (centres unmarked) [fenoprofen]
IC50 [1, 6]: > 10 µM

C[C@@H]1C(=O)O[C@H]2C[C@@]34[C@H]5C[C@@H](C(C)(C)C)[C@]36[C@@H](OC(=O)[C@@H]6O)O[C@@]4(C(=O)O5)[C@]21O [ginkgolide A]
IC50 [1, 4]: > 10 µM

Cc1ccc(S(=O)(=O)NC(=O)NN2CC3CCCC3C2)cc1 (centres unmarked) [gliclazide]
IC50 [1, 6]: > 10 µM | Clonogenic assay ([2]; Table 3-1, 15 days): Ineffective

CC[C@H](c1ccc(O)cc1)[C@@H](CC)c1ccc(O)cc1 [hexestrol]
IC50 [1, 6]: > 10 µM | Clonogenic assay ([2]; Table 3-1, 15 days): Ineffective | drug efficacy label [3]: hexestrol (4)

CC1=CC(=O)C2=C(C)CC[C@@H]3[C@H](OC(=O)[C@H]3C)[C@@H]12 [leucomisine]
IC50 [1, 4]: > 10 µM | Clonogenic assay ([2]; Table 3-1, 15 days): Ineffective

C#C[C@]1(O)CC[C@H]2[C@@H]3CCC4=CC(=O)CC[C@@H]4[C@H]3CC[C@@]21CC [levonorgestrel]
IC50 [1, 6]: > 10 µM

OC(c1cc(C(F)(F)F)nc2c(C(F)(F)F)cccc12)C1CCCCN1 (centres unmarked) [mefloquine]
IC50 [1, 6]: 1 to 5 µM

Cc1cc2c(cc1S(N)(=O)=O)S(=O)(=O)CCC2 [meticrane]
IC50 [1, 6]: > 10 µM | Clonogenic assay ([2]; Table 3-1, 15 days): Ineffective

O=C1c2c(O)ccc(O)c2C(=O)c2c(NCCNCCO)ccc(NCCNCCO)c21 [mitoxantrone]
IC50 [1, 6]: 0.1 to 1 µM

Cc1ccsc1/C=C/C1=NCCCN1C [morantel]
IC50 ([1]; 72 h): > 10 µM

C#CCN(C)Cc1ccccc1 [pargyline]
IC50 [1, 6]: > 10 µM

O=C(O)c1ccccc1C(=O)Nc1ccc(S(=O)(=O)Nc2nccs2)cc1 [phthalylsulfathiazole]
IC50 [1, 6]: > 10 µM | Clonogenic assay ([2]; Table 3-1, 15 days): Ineffective

COc1cc(/C=C/C(=O)N2CCC=CC2=O)cc(OC)c1OC [piperlongumine]
IC50 [1]: 1 to 5 µM

CCN(CC)CCOC(=O)c1ccc(N)cc1 [procaine]
IC50 [1, 6]: > 10 µM

CCCNCC(O)COc1ccccc1C(=O)CCc1ccccc1 (centres unmarked) [propafenone]
IC50 [1, 6]: > 10 µM | inhibition at 10 µM ([2]; Table 3-1, 15 days): > 50%

Oc1ccc(C=Cc2cc(O)cc(O)c2)cc1 [resveratrol]
drug efficacy label [3]: resveratrol (4)

Cn1c([N+](=O)[O-])cnc1COC(N)=O [ronidazole]
IC50 [1, 6]: > 10 µM

C=C(C)[C@H]1Cc2c(ccc3c2O[C@@H]2COc4cc(OC)c(OC)cc4[C@@H]2C3=O)O1 [rotenone]
IC50 [1, 6]: 0.1 to 1 µM

CC[C@H]1OC(=O)[C@H](C)[C@@H](O[C@H]2C[C@@](C)(OC)[C@@H](O)[C@H](C)O2)[C@H](C)[C@@H](O[C@@H]2O[C@H](C)C[C@H](N(C)C)[C@H]2O)[C@](C)(O)C[C@@H](C)/C(=N\OCOCCOC)[C@H](C)[C@@H](O)[C@]1(C)O [roxithromycin]
IC50 [1, 6]: > 10 µM

C[n+]1cc2c3c(ccc2c2ccc4cc5c(cc4c21)OCO5)OCO3 [sanguinarine]
IC50 ([1]; 72 h): 0.1 to 1 µM

COc1ccc2c(OC)c3ccoc3nc2c1OC [skimmianine]
IC50 [1, 6]: > 10 µM | inhibition at 10 µM ([2]; Table 3-1, 15 days): > 50%

O=C(CCCN1CCC2(CC1)C(=O)NCN2c1ccccc1)c1ccc(F)cc1 [spiperone]
inhibition at 10 µM ([2]; Table 3-1, 15 days): > 50%

Clc1ccc(CSC(Cn2ccnc2)c2ccc(Cl)cc2Cl)cc1 (centres unmarked) [sulconazole]
inhibition at 10 µM ([2]; Table 3-1, 15 days): > 50% | Clonogenic assay ([2]; Table 2-2, 15 days): Effective (Effectiveness in clonogenic assay is defined as reducing more than 50% colony number at 10 μM)

COc1cnc(NS(=O)(=O)c2ccc(N)cc2)nc1 [sulfametoxydiazine]
IC50 [1, 6]: > 10 µM

C=CCNC1=C2C[C@@H](C)C[C@H](OC)[C@H](O)[C@@H](C)/C=C(\C)[C@H](OC(N)=O)[C@@H](OC)/C=C\C=C(/C)C(=O)NC(=CC1=O)C2=O [tanespimycin]
cell viability / cytotoxicity in HCC cell lines ([1]; 0.1, 1 and 10 μM, 72 hours, MTT): exhibited cytotoxicity effect | IC50 [1, 5]: < 0.1 µM | IC50 [1, 6]: < 0.1 µM | IC50 ([1]; 72 h, HCC cell lines): < 10 µM | drug efficacy label [3]: tanespimycin (1)

CSc1ccc2c(c1)N(CCC1CCCCN1C)c1ccccc1S2 (centres unmarked) [thioridazine]
drug efficacy label [3]: thioridazine (1)

C=C(NC(=O)C(=C)NC(=O)c1csc(C2=N[C@@H]3c4csc(n4)[C@H]4NC(=O)c5csc(n5)[C@H]([C@](C)(O)[C@@H](C)O)NC(=O)[C@H]5CSC(=N5)/C(=C/C)NC(=O)[C@H]([C@@H](C)O)NC(=O)c5csc(n5)[C@]3(CC2)NC(=O)[C@H](C)NC(=O)C(=C)NC(=O)[C@H](C)NC(=O)[C@H]([C@@H](C)CC)N[C@@H]2C=Cc3c([C@H](C)O)cc(nc3[C@H]2O)C(=O)O[C@@H]4C)n1)C(N)=O [thiostrepton]
IC50 [1, 6]: 1 to 5 µM

CC(=O)Oc1cc(C(F)(F)F)ccc1C(=O)O [triflusal]
IC50 [1, 5]: > 10 µM | IC50 [1, 6]: > 10 µM | Clonogenic assay ([2]; Table 2-2, 15 days): Ineffective | Clonogenic assay ([2]; Table 3-1, 15 days): Ineffective

Cc1cc2cc3c(C)cc(=O)oc3c(C)c2o1 [trioxysalen]
IC50 [1, 6]: > 10 µM | inhibition at 10 µM ([2]; Table 3-1, 15 days): > 50%

CC1=C(CO)C(=O)O[C@@H]([C@@H](C)[C@H]2CC[C@H]3[C@@H]4C[C@H]5O[C@]56[C@@H](O)C=CC(=O)[C@]6(C)[C@H]4CC[C@]23C)C1 [withaferin A]
IC50 [1, 4]: 0.1 to 1 µM

CN(C)C/C=C(/c1ccc(Br)cc1)c1cccnc1 [zimeldine]
IC50 [1, 6]: > 10 µM | Clonogenic assay ([2]; Table 3-1, 15 days): Ineffective

tyloxapol
IC50 [1, 4]: 5 to 10 µM
